The values that follow are results of earlier work, collected in patent US20240041828A1, “Combination Therapeutics Comprising Nrf2 Agonists and Antivirals for Treating Viral Infections” (The Regents of the University of California, priority 2022, published 2024).

Structures can show the parent of a compound that is named as a salt. Where two headings read alike, the source gives them in different places.

This data set has as its system human mammalian cells. The note with it: cited from earlier work.

For the molecule `COC(=O)/C=C/C(=O)OC` [DMF, Dimethyl fumarate], the “concentration shown to be physiologically relevant, efficacious and non-cytotoxic” value is 0.1-100 μM.
As to `COC1=C(OC)C(=O)C(CCCCCCCCCC[P+](c2ccccc2)(c2ccccc2)c2ccccc2)=C(C)C1=O.CS(=O)(=O)[O-]` [Mito-MES, 10-(4,5-dimethoxy-2-methyl-3,6-dioxo-1,4-cyclohexadienyl) decyl triphenylphosphonium methanesulfonate], the “concentration shown to be physiologically relevant, efficacious and non-cytotoxic” value (human mammalian cells) was 10-1000 nM.
